Structures are written as SMILES.

For orientation: IC50 means the midpoint of a concentration-inhibition curve.

For one assay, the target named is T1, human CRTH2 (Homo sapiens, UniProt Q9Y5Y4).
T1 construct: expressed in transfected cells; host or cells: HEK293 cells, stably transfected; membrane preparation
T1 sequence (Q9Y5Y4 1-395): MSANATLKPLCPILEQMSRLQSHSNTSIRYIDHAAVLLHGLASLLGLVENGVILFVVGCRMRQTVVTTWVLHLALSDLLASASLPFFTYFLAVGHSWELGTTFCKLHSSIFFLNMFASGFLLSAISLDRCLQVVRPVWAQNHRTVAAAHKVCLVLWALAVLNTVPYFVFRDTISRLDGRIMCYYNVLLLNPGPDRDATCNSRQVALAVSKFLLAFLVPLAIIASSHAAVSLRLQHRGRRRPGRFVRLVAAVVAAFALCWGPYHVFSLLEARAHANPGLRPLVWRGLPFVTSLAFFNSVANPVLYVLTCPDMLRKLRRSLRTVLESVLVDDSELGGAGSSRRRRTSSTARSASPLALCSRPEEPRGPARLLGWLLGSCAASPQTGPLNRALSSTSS
The assay can be described thus: Human CRTH2 binding assay (3H-labeled PGD2 binding, membranes of HEK293 cells transfected with human CRTH2). The settings on record: membrane preparation of HEK293 cells with human CRTH2; 2 nM 3H-labeled PGD2; 4° C., 120 minutes; read-out: IC50 (nM), in vitro human CRTH2 binding assay. The method, then: Human CRTH2 Binding Assay
To evaluate CRTH2 binding activities of example compounds, PGD2 binding assay was performed as modifications of former paper (Journal of pharmacology and experimental therapeutics, 2003, 306(2), pp. 463-470).
HEK293 cells stably transfected with human CRTH2 cDNA were suspended in assay buffer (10 mM BES, 1 mM EDTA, 10 mM MnCl2, pH=7.0) and broken into pieces by strong mixture using injection needle. The membrane preparation at the concentration of 50 μg protein was mixed with various concentrations of compounds. Binding reaction was initiated by an addition of ^3H-labeled PGD2 to a final concentration of 2 nM and the reaction mixture was incubated at 4° C. for 120 minutes. The reaction was terminated by filtration using GF/B plate (PerkinElmer) which was washed with wash buffer (10 mM BES, 0.01% BSA). ^3H-labeled PGD2 which binds to CRTH2 were captured on this plate and the radioactivity was measured. The total and non-specific binding were determined in the absence and presence of 10 μM DK-PGD2. The binding activity of each compound was expressed as IC50 value.

Assay [1] concerns Guinea Pig antigen-induced hyper-responsiveness. The experiment in a line: Guinea Pig antigen-induced hyper-responsiveness model. The settings on record: OVA-sensitized male Hartley guinea pigs, AUC of peak inflation pressure versus methacholine dose. Type of assay: in vivo. The procedure:
Guinea Pig Antigen-Induced Hyper-Responsiveness Model
To evaluate anti asthma efficacy of the compounds, they were administered to Guinea Pig antigen-induced hyper-responsiveness model which is cited in the literature with minor modifications (Agents Actions, 1992, 37, pp. 162-164).
Male Hartley guinea pigs were actively sensitized to ovalbumin (OVA) by i.p. injection of 20 mg in 0.9% saline at day 0 and 1 mg at day 2. Animals were exposed for 10 minutes on days 14-21 to an aerosol of 0.5% OVA solution in 0.9% saline or saline alone generated from a nebulizer. All animals were treated with compound by p.o. administration 60 minutes prior to the aerosol and 1 mg/kg pyrilamine by i.p. injection 30 minutes prior to the aerosol. On day 22, animal was anesthetized with urethane (1.5 g/kg). The trachea was cannulated and the animal was mechanically ventilated (60 strokes/minute; 1 mL/100 g body weight) with a small animal respirator. Pulmonary inflation pressure (PIP) was monitored with a pressure transducer. Doses of methacholine (0-14 μg/kg) were administered sequentially (3 minutes intervals) by the right jugular vein to each animal. The area under the peak inflation pressure versus methacholine dose curve (AUC) was calculated for each animal.

Take `O=C(O)Cn1ccc2c(CCCn3cc(C(c4ccccc4)c4ccccc4)ccc3=O)cccc21` [Example 4, (4-{3-[5-(diphenylmethyl)-2-oxopyridin-1(2H)-yl]propyl}-1H-indol-1-yl)acetic acid]: the IC50 on human CRTH2 is 3.6 nM. As to `O=C(O)COc1cccc(CCCn2cc(C(c3ccccc3)c3ccccc3)ccc2=O)c1` [Example 10, (3-{3-[5-(diphenylmethyl)-2-oxopyridin-1(2H)-yl]propyl}phenoxy)acetic acid], at human CRTH2, the IC50 was 42 nM. In addition, in assay [1] (dose 10 mg/kg p.o.), the “inhibition (%)” value was 100%. `C[C@H](Oc1cccc(CCCn2nc(C(c3ccccc3)c3ccccc3)ccc2=O)c1)C(=O)O` [Example 59, (2S)-2-(3-{3-[3-(Diphenylmethyl)-6-oxopyridazin-1(6H)-yl]propyl}phenoxy)propanoic acid]: the IC50 at human CRTH2 was found to be 13 nM. The “inhibition (%)” value in assay [1] (dose 3 mg/kg p.o.) turned out to be 93%. `O=C(O)CCCOc1cccc(CCCn2nc(C(c3ccccc3)c3ccccc3)ccc2=O)c1` [Example 69, 4-(3-{3-[3-(Diphenylmethyl)-6-oxopyridazin-1(6H)-yl]propyl}phenoxy)butanoic acid]: the IC50 at human CRTH2 amounted to 14 nM. On the same count and under the same terms, the same measure for `O=C(O)COc1cccc(CCCN2C(=O)OC[C@@H]2C(c2ccccc2)c2ccccc2)c1` [Example 72, (3-{3-[(4S)-4-(Diphenylmethyl)-2-oxo-1,3-oxazolidin-3-yl]propyl}phenoxy)acetic acid]: 5.5 nM.

Take `O=C(O)CCCOc1cccc(SCCn2cc(C(c3ccccc3)c3ccccc3)ccc2=O)c1` [Example 84, 4-[3-({2-[5-(Diphenylmethyl)-2-oxopyridin-1(2H)-yl]ethyl}sulfanyl)phenoxy]butanoic acid]: at human CRTH2, the IC50 amounted to 8.1 nM. Moreover, in assay [1] (dose 3 mg/kg p.o.), the “inhibition (%)” value was found to be 100%. Consider `NS(=O)(=O)c1cccc(C(=O)N(CCCc2cccc(OCC(=O)O)c2)CCC(c2ccccc2)c2ccccc2)c1` [Example 99, [3-(3-{[3-(Aminosulfonyl)benzoyl](3,3-diphenylpropyl)amino}propyl)phenoxy]acetic acid], for which the IC50 at human CRTH2 was determined as 4.8 nM. For `O=C(O)CCCOc1cccc(CCCn2nc(C(c3ccc(F)cc3)c3ccc(F)cc3)ccc2=O)c1` [Example 111, 4-[3-(3-{3-[Bis(4-fluorophenyl)methyl]-6-oxopyridazin-1(6H)-yl}propyl)phenoxy]butanoic acid], the 50% inhibitory concentration (IC50) on human CRTH2 was 18 nM. Further, the “inhibition (%)” value in assay [1] (dose 3 mg/kg p.o.) turned out to be 89%.

For the compound `O=C(O)CCCOc1cccc(CCCn2cc(C(c3ccc(F)cc3)c3ccc(F)cc3)ccc2=O)c1` [Example 112, 4-[3-(3-{5-[Bis(4-fluorophenyl)methyl]-2-oxopyridin-1(2H)-yl}propyl)phenoxy]butanoic acid], on human CRTH2, the IC50 is 24 nM. Further, the “inhibition (%)” value in assay [1] (dose 1 mg/kg p.o.) worked out at 60%.

`O=C(O)COc1cccc(CCCn2cc(-c3ccccc3-c3cccc4ccccc34)ccc2=O)c1` [Example 123, [3-(3-{5-[2-(1-Naphthyl)phenyl]-2-oxopyridin-1(2H)-yl}propyl)phenoxy]acetic acid]: the IC50 at human CRTH2 is 7.6 nM.

Source of the values: US8273745B2, “Polycyclic acid compounds useful as CRTH2 antagonists and antiallergic agents” (Astellas Pharma Inc, priority 2006, dated 2012).
